{"source": "patent US20250376445A1", "about": "“COMPOUNDS AND METHODS FOR YAP/TEAD MODULATION AND INDICATIONS THEREFOR” (OPNA BIO SA, priority 2023, published 2025)"}
{"test_system": "TEAD-dependent transcription", "experiment": "TEAD-dependent transcription cell-based reporter assay (MSTO-211H+12XGTIIC luciferase)", "parameters": "species or system human", "conditions": "Homo sapiens; MSTO-211H+12XGTIIC reporter cells, 24 hours compound incubation, luminescence normalized to viability; read-out: MSTO-211H GMean IC50 (uM) Cell Assay Reporter Cell Variant: TEAD", "description": "The human mesothelioma cell line MSTO-211H was stably transfected with a pGL4.21 plasmid containing a synthetic promoter with 12 copies of the GTIIC TEAD response element that drives the expression of a luciferase reporter gene^1 using Lipofectamine transfection reagent (Thermo Fisher). Transfected cells were selected using puromycin and single cell clones expressing this construct (referred to as MSTO-211H+12XGTIIC) were generated by limiting dilution. MSTO-211H cells was characterized by genetic alterations in key components of the Hippo pathway^2, resulting in up-regulation of YAP/TEAD-mediated transcription. […] To evaluate TEAD inhibitors, the MSTO-211H+12XGTIIC cell line was seeded in a 96-well plate in 50 μL of culture media at 1×10^4 cells per well and incubated at 37° C. overnight. Serial dilutions of compounds (in total volume of 50 μL of culture media) were added to the cells and incubated at 37° C. for 24 hours. Each plate included cells treated with DMSO as high controls and cells treated with 20 μM of the reference compound K-975 (a known TEAD inhibitor)^3 as low controls. Cell viability was assayed by the addition of 25 μL of CellTiter-Fluor reagent (Promega) followed by a 30-minute incubation at 37° C. and quantification of the fluorescence signal (Ex400/Em505). Subsequently, luciferase expression was assayed by the addition of 25 μL of ONE-Glo reagent (Promega) followed by a 10-minute incubation at room temperature and quantification of the luminescence signal. The luminescence signal was normalized to the fluorescence signal to correct for any loss in cell viability over the 24-hour compound incubation period. The percentage of inhibition of normalized luminescence signal, indicative of compound-mediated inhibition of TEAD-dependent transcription, at individual compound concentrations relative to high and low controls was calculated. The data were analyzed by using nonlinear regression to generate IC50 values for individual compounds.", "units": {"IC50": "µM"}}
{"smiles": "C[C@@H](N)C(=O)N1CCc2ccc(-c3ccc(C(F)(F)F)cc3)cc2C1", "note": "[O-0187, (R)-2-amino-1-(7-(4-(trifluoromethyl)phenyl)-3,4-dihydroisoquinolin-2(1H)-yl)propan-1-one]", "IC50": "0.001 to 10"}
{"smiles": "C=CC(=O)N1CCc2c(cccc2-c2ccc(C(F)(F)F)cc2)C1", "note": "[O-0116, 1-(5-(4-(trifluoromethyl)phenyl)-3,4-dihydroisoquinolin-2(1H)-yl)prop-2-en-1-one]", "IC50": "0.001 to 10"}
{"smiles": "O=C(CCc1cnc[nH]1)N1CCc2ccc(C(F)(F)c3ccc(C(F)(F)F)nc3)cc2C1", "note": "[O-0059, 1-(7-(difluoro(6-(trifluoromethyl)pyridin-3-yl)methyl)-3,4-dihydroisoquinolin-2(1H)-yl)-3-(1H-imidazol-5-yl)propan-1-one]", "IC50": "0.001 to 10"}
{"smiles": "O=C(c1c[nH]c(C(F)(F)F)n1)N1CCc2cc(-c3ccc(C(F)(F)F)cc3)ccc2C1", "note": "[O-0191, (2-(trifluoromethyl)-1H-imidazol-4-yl)(6-(4-(trifluoromethyl)phenyl)-3,4-dihydroisoquinolin-2(1H)-yl)methanone]", "IC50": "0.001 to 10"}
{"smiles": "O=C(c1ccc(C(F)(F)F)cc1)c1cccc2c1CCN(C(=O)c1ccc3nc[nH]c3c1)C2", "note": "[O-0074, (2-(1H-benzo[d]imidazole-6-carbonyl)-1,2,3,4-tetrahydroisoquinolin-5-yl)(4-(trifluoromethyl)phenyl)methanone]", "IC50": "0.001 to 10"}
{"smiles": "O=C(CCS(=O)(=O)C(F)(F)F)N1CCc2cc(-c3ccc(C(F)(F)F)cc3)ccc2C1", "note": "[O-0128, 1-(6-(4-(trifluoromethyl)phenyl)-3,4-dihydroisoquinolin-2(1H)-yl)-3-((trifluoromethyl)sulfonyl)propan-1-one]", "IC50": "0.001 to 10"}
{"smiles": "O=C(Cc1c[nH]cn1)N1CCc2c(cccc2C(F)c2ccc(C(F)(F)F)cc2)C1", "note": "(centres unmarked) [O-0068, 1-(5-(fluoro(4-(trifluoromethyl)phenyl)methyl)-3,4-dihydroisoquinolin-2(1H)-yl)-2-(1H-imidazol-4-yl)ethan-1-one]", "IC50": "0.001 to 10"}
{"smiles": "O=C(c1ccc(C(F)(F)F)cc1)c1ccc2c(c1)CN(C(=O)CCS(=O)(=O)C(F)(F)F)CC2", "note": "[O-0065, 1-(7-(4-(trifluoromethyl)benzoyl)-3,4-dihydroisoquinolin-2(1H)-yl)-3-((trifluoromethyl)sulfonyl)propan-1-one]", "IC50": "0.001 to 10"}
{"smiles": "O=C(Cc1c[nH]cn1)N1CCc2c(Cc3ccc(C(F)(F)F)cc3)cccc2C1", "note": "[O-0080, 2-(1H-imidazol-4-yl)-1-(5-(4-(trifluoromethyl)benzyl)-3,4-dihydroisoquinolin-2(1H)-yl)ethan-1-one]", "IC50": "0.001 to 10"}
{"smiles": "CS(=O)(=O)CCC(=O)N1CCc2c(cccc2C(=O)c2ccc(C(F)(F)F)cc2)C1", "note": "[O-0081, 3-(methylsulfonyl)-1-(5-(4-(trifluoromethyl)benzoyl)-3,4-dihydroisoquinolin-2(1H)-yl)propan-1-one]", "IC50": "0.001 to 10"}
{"smiles": "O=C(c1ccc(C(F)(F)F)cc1)c1cccc2c1CCN(C(=O)CCS(=O)(=O)C(F)(F)F)C2", "note": "[O-0005, 1-(5-(4-(trifluoromethyl)benzoyl)-3,4-dihydroisoquinolin-2(1H)-yl)-3-((trifluoromethyl)sulfonyl)propan-1-one]", "IC50": "0.001 to 10"}
{"smiles": "CS(=O)(=O)c1nc(C(=O)N2CCc3c(cccc3C(=O)c3ccc(C(F)(F)F)cc3)C2)c[nH]1", "note": "[O-0038, (2-(methylsulfonyl)-1H-imidazol-4-yl)(5-(4-(trifluoromethyl)benzoyl)-3,4-dihydroisoquinolin-2(1H)-yl)methanone]", "IC50": "0.001 to 10"}
{"smiles": "O=C(c1ccc(C(F)(F)F)cc1)c1cccc2c1CCN(C(=O)Cc1cscn1)C2", "note": "[O-0076, 2-(thiazol-4-yl)-1-(5-(4-(trifluoromethyl)benzoyl)-3,4-dihydroisoquinolin-2(1H)-yl)ethan-1-one]", "IC50": "0.001 to 10"}
{"smiles": "O=C(c1c[nH]c(C(F)(F)F)n1)N1CCc2c(cccc2C(F)c2ccc(C(F)(F)F)cc2)C1", "note": "(centres unmarked) [O-0055, (5-(fluoro(4-(trifluoromethyl)phenyl)methyl)-3,4-dihydroisoquinolin-2(1H)-yl)(2-(trifluoromethyl)-1H-imidazol-4-yl)methanone]", "IC50": "0.001 to 10"}
